Reference: patent US4327097A, “Novel penicillins” (Toyama Chemical Co., Ltd., priority 1974, dated 1982)
≈ marks a conversion by molar mass, not a printed value.

Legend:
Escherichia coli NIHJ = experiment: MIC, plate method, standard strains; assay type: cell-based; details: Table 4, standard strain; unit assumed
Outline: (§1)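 Plates of Heart infusion agar (pH 7.4) containing compound dilutions; 10^4-cell inoculum, from 10^6 cells/ml; lowest concentration preventing growth reported.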

Klebsiella pneumoniae [1] = experiment: MIC, plate method, standard strains; assay type: cell-based; details: Table 4, standard strain; unit assumed
Outline: as §1

Proteus vulgaris 3027 = experiment: MIC, plate method, standard strains; assay type: cell-based; details: Table 4, standard strain; unit assumed
Outline: as §1

[2] = test system: Pseudomonas aeruginosa I.F.O.; experiment: MIC, plate method, standard strains; assay type: cell-based; details: Table 4, standard strain; unit assumed
Outline: as §1

[3] = test system: Staphylococcus aureus 209p; experiment: MIC, plate method, standard strains; assay type: cell-based; details: Table 4, standard strain; unit assumed
Outline: as §1

Staphylococcus aureus = experiment: MIC against clinical isolates; assay type: cell-based; details: Table 6-1, clinical isolate; unit assumed
Escherichia coli = experiment: MIC against clinical isolates; assay type: cell-based; details: Table 6-2, clinical isolate; unit assumed
Pseudomonas aeruginosa = experiment: MIC against clinical isolates; assay type: cell-based; details: unit assumed; for MIC Pseudomonas aeruginosa GN / MIC Pseudomonas aeruginosa GN4 / MIC Pseudomonas aeruginosa GN 82 / MIC Pseudomonas aeruginosa GN 221 / MIC Pseudomonas aeruginosa GN 376 / MIC Pseudomonas aeruginosa GN 1035 / MIC Pseudomonas aeruginosa GN 1091 / MIC Pseudomonas aeruginosa GN 2565: Table 6-3, clinical isolate; for MIC Pseudomonas aeruginosa GN: strain number not given; for MIC Pseudomonas aeruginosa S-1: Table 6-4, clinical isolate
Klebsiella pneumoniae [4] = experiment: MIC against clinical isolates; assay type: cell-based; details: Table 6-4, clinical isolate; unit assumed
Proteus mirabilis = experiment: MIC against clinical isolates; assay type: cell-based; details: Table 6-5, clinical isolate; unit assumed
Proteus morganii = experiment: MIC against clinical isolates; assay type: cell-based; details: Table 6-5, clinical isolate; unit assumed
Proteus vulgaris = experiment: MIC against clinical isolates; assay type: cell-based; details: Table 6-5, clinical isolate; unit assumed
Proteus rettgeri = experiment: MIC against clinical isolates; assay type: cell-based; details: Table 6-5, clinical isolate; unit assumed
[5] = target: β-lactamase, Escherichia freundii GN 346 (Citrobacter freundii, UniProt Q46041); experiment: Resistant activity against β-lactamase, iodometric assay; assay type: biochemical; details: control Cephalorizine = 100
Experimental: (§2) (4) Resistant activity of each cephalosporin compound against β-lactamase, Proteus vulgaris GN 76 and Escherichia freundii GN 346:
(§3) The resistant activity of each cephalosporin compound against β-lactamase was measured in the manner described below.
(§4) β-lactamase was prepared from Proteus vulgaris GN 76 and Escherichia freundii GN 346. 10 ml of an overnight culture in Heart Infusion broth was diluted with 100 ml of a medium containing 2 g of yeast extract, 10 g of polypeptone, 2 g of glucose, 7 g of disodium hydrogen phosphate, 2 g of potassium dihydrogen phosphate, 1.2 g of ammonium sulfate and 0.4 g of magnesium sulfate, per liter, and incubated with shaking at 37° C. After incubation of 2 hrs, Penicillin G (50 μg/ml) was added as the inducer, and further incubated for 2 hrs. The resulting cells were collected by centrifugation (5,000 r.p.m.×10 min.) and washed two times with 0.1 M phosphate buffer (pH 7.0). Subsequently, the cells were subjected to sonication (20 KHz, 5 min.) and then centrifuged at 15,000 r.p.m. for 60 min. By using the supernatant of enzyme fluid, the stability of each compound against β-lactamase was determined by the iodometric assay method. Each numeral shown in Table 7-2 is a relative activity value calculated by assuming as 100 the activity of the control Cephalorizine.

[6] = target: T1, β-lactamase, Proteus vulgaris GN 76 (Proteus vulgaris, UniProt P52664); experiment: as above; assay type: biochemical; details: control Cephalorizine = 100
T1 construct: By using the supernatant of enzyme fluid; endogenous in cells; host or cells: Proteus vulgaris GN 76 (penicillin G-induced cells, sonicated, 15,000 r.p.m. supernatant)
Experimental: as §2, §3, §4

β-lactamase, Escherichia freundii GN 346, sequence (Q46041 entry or part of it): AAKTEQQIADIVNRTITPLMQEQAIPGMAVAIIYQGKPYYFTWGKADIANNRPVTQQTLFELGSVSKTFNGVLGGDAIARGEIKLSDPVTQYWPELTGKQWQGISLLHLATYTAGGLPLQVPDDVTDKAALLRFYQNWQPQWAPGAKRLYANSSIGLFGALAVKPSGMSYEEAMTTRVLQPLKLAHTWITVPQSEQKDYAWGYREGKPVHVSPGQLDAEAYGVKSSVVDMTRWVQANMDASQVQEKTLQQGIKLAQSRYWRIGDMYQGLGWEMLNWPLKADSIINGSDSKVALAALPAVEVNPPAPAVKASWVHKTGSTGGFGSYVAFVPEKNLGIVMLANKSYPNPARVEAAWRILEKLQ
T1 sequence (P52664 30-300): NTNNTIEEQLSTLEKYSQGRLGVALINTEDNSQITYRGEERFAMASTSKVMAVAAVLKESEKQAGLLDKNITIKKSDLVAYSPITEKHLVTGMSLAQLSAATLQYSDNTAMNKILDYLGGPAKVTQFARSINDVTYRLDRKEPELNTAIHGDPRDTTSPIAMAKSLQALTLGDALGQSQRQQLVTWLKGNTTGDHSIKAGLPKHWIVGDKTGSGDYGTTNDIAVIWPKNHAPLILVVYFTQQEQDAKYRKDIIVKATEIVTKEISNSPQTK

SMILES	MIC Escherichia coli NIHJ (Escherichia coli NIHJ) [µg/mL]	MIC Klebsiella pneumoniae (Klebsiella pneumoniae [1]) [µg/mL]	MIC Proteus vulgaris 3027 (Proteus vulgaris 3027) [µg/mL]	MIC Pseudomonas aeruginosa I.F.O. [2] [µg/mL]	MIC Staphylococcus aureus 209p [3] [µg/mL]	MIC Staphylococcus aureus F-1 (Staphylococcus aureus) [µg/mL]	MIC Staphylococcus aureus MS 8588 (Staphylococcus aureus) [µg/mL]	MIC Staphylococcus aureus MS 8596 (Staphylococcus aureus) [µg/mL]	MIC Staphylococcus aureus MS 8619 (Staphylococcus aureus) [µg/mL]	MIC Staphylococcus aureus MS 8684 (Staphylococcus aureus) [µg/mL]	MIC Escherichia coli GN 3435 (Escherichia coli) [µg/mL]	MIC Escherichia coli GN 3452 (Escherichia coli) [µg/mL]	MIC Escherichia coli GN 3465 (Escherichia coli) [µg/mL]	MIC Escherichia coli K-2 (Escherichia coli) [µg/mL]	MIC Escherichia coli K-4 (Escherichia coli) [µg/mL]	MIC Pseudomonas aeruginosa GN (Pseudomonas aeruginosa) [µg/mL]	MIC Pseudomonas aeruginosa GN4 (Pseudomonas aeruginosa) [µg/mL]	MIC Pseudomonas aeruginosa GN 82 (Pseudomonas aeruginosa) [µg/mL]	MIC Pseudomonas aeruginosa GN 221 (Pseudomonas aeruginosa) [µg/mL]	MIC Pseudomonas aeruginosa GN 376 (Pseudomonas aeruginosa) [µg/mL]	other results
CCN1CCN(C(=O)NC(C(=O)NC2C(=O)N3C(C(=O)O)=C(CSc4nnnn4C)CSC23)c2ccc(O)cc2)C(=O)C1=O (stereo not drawn) [Compound No. 72]	< 0.1	< 0.1	0.4 (≈ 0.62 µM)	6.25 (≈ 9.68 µM)	< 1.57	1.56 (≈ 2.42 µM)	1.56 (≈ 2.42 µM)	3.13 (≈ 4.85 µM)	1.56 (≈ 2.42 µM)	1.56 (≈ 2.42 µM)	0.1 (≈ 0.155 µM)	0.2 (≈ 0.31 µM)	1.56 (≈ 2.42 µM)	0.39 (≈ 0.604 µM)	0.39 (≈ 0.604 µM)	12.5 (≈ 19.4 µM)	12.5 (≈ 19.4 µM)	6.25 (≈ 9.68 µM)	6.25 (≈ 9.68 µM)	6.25 (≈ 9.68 µM)	MIC Pseudomonas aeruginosa GN 1035 (Pseudomonas aeruginosa): 25 µg/mL (≈ 38.7 µM); MIC Pseudomonas aeruginosa GN 1091 (Pseudomonas aeruginosa): 6.25 µg/mL (≈ 9.68 µM); MIC Pseudomonas aeruginosa GN 2565 (Pseudomonas aeruginosa): 25 µg/mL (≈ 38.7 µM); MIC Pseudomonas aeruginosa S-1 (Pseudomonas aeruginosa): 12.5 µg/mL (≈ 19.4 µM); MIC Klebsiella pneumoniae GN 917 (Klebsiella pneumoniae [4]): 0.2 µg/mL (≈ 0.31 µM); MIC Klebsiella pneumoniae GN 4081 (Klebsiella pneumoniae [4]): 1.56 µg/mL (≈ 2.42 µM); MIC Proteus mirabilis (Proteus mirabilis): 0.78 µg/mL (≈ 1.21 µM); MIC Proteus morganii (Proteus morganii): 0.78 µg/mL (≈ 1.21 µM); MIC Proteus vulgaris (Proteus vulgaris): 0.39 µg/mL (≈ 0.604 µM); MIC Proteus rettgeri (Proteus rettgeri): 1.56 µg/mL (≈ 2.42 µM); Relative activity (%) against β-lactamase, E. freundii GN 346 [5]: 0.2%; Relative activity (%) against β-lactamase, Pr. vulgaris GN 76 [6]: 7%
CCCCCCCCN1CCN(C(=O)N[C@@H](C(=O)NC2C(=O)N3C(C(=O)O)=C(CSc4nnnn4C)CSC23)c2ccccc2)C(=O)C1=O (single isomer, unassigned) [Compound No. 74]	0.2 (≈ 0.28 µM)	0.79 (≈ 1.11 µM)	1.57 (≈ 2.2 µM)	12.5 (≈ 17.5 µM)	1.57 (≈ 2.2 µM)	0.78 (≈ 1.09 µM)	0.78 (≈ 1.09 µM)	0.78 (≈ 1.09 µM)	0.78 (≈ 1.09 µM)	0.78 (≈ 1.09 µM)	0.78 (≈ 1.09 µM)	1.56 (≈ 2.19 µM)	1.56 (≈ 2.19 µM)	3.13 (≈ 4.38 µM)	1.56 (≈ 2.19 µM)	25 (≈ 35 µM)	50 (≈ 70 µM)	25 (≈ 35 µM)	50 (≈ 70 µM)	50 (≈ 70 µM)	MIC Pseudomonas aeruginosa GN 1035 (Pseudomonas aeruginosa): 25 µg/mL (≈ 35 µM); MIC Pseudomonas aeruginosa GN 1091 (Pseudomonas aeruginosa): 25 µg/mL (≈ 35 µM); MIC Pseudomonas aeruginosa GN 2565 (Pseudomonas aeruginosa): 50 µg/mL (≈ 70 µM); MIC Pseudomonas aeruginosa S-1 (Pseudomonas aeruginosa): 50 µg/mL (≈ 70 µM); MIC Klebsiella pneumoniae GN 917 (Klebsiella pneumoniae [4]): 1.56 µg/mL (≈ 2.19 µM); MIC Klebsiella pneumoniae GN 4081 (Klebsiella pneumoniae [4]): 1.56 µg/mL (≈ 2.19 µM); MIC Proteus mirabilis (Proteus mirabilis): 0.39 µg/mL (≈ 0.546 µM); MIC Proteus morganii (Proteus morganii): 0.78 µg/mL (≈ 1.09 µM); MIC Proteus vulgaris (Proteus vulgaris): 0.78 µg/mL (≈ 1.09 µM); MIC Proteus rettgeri (Proteus rettgeri): 6.25 µg/mL (≈ 8.76 µM); Relative activity (%) against β-lactamase, E. freundii GN 346 [5]: 0.03%; Relative activity (%) against β-lactamase, Pr. vulgaris GN 76 [6]: 5%
CCCCN1CCN(C(=O)NC(C(=O)NC2C(=O)N3C(C(=O)O)=C(CSc4nnnn4C)CSC23)c2ccccc2)C(=O)C1=O (single isomer, unassigned) [Compound No. 73]	< 0.1	0.2 (≈ 0.304 µM)	1.57 (≈ 2.39 µM)	25 (≈ 38 µM)	1.57 (≈ 2.39 µM)	1.56 (≈ 2.37 µM)	1.56 (≈ 2.37 µM)	3.13 (≈ 4.76 µM)	1.56 (≈ 2.37 µM)	1.56 (≈ 2.37 µM)	0.78 (≈ 1.19 µM)	0.78 (≈ 1.19 µM)	1.56 (≈ 2.37 µM)	1.56 (≈ 2.37 µM)	0.78 (≈ 1.19 µM)	12.5 (≈ 19 µM)	12.5 (≈ 19 µM)	12.5 (≈ 19 µM)	12.5 (≈ 19 µM)	12.5 (≈ 19 µM)	MIC Pseudomonas aeruginosa GN 1035 (Pseudomonas aeruginosa): 50 µg/mL (≈ 76 µM); MIC Pseudomonas aeruginosa GN 1091 (Pseudomonas aeruginosa): 12.5 µg/mL (≈ 19 µM); MIC Pseudomonas aeruginosa GN 2565 (Pseudomonas aeruginosa): 25 µg/mL (≈ 38 µM); MIC Pseudomonas aeruginosa S-1 (Pseudomonas aeruginosa): 50 µg/mL (≈ 76 µM); MIC Klebsiella pneumoniae GN 917 (Klebsiella pneumoniae [4]): 0.78 µg/mL (≈ 1.19 µM); MIC Klebsiella pneumoniae GN 4081 (Klebsiella pneumoniae [4]): 1.56 µg/mL (≈ 2.37 µM); MIC Proteus mirabilis (Proteus mirabilis): 0.39 µg/mL (≈ 0.593 µM); MIC Proteus morganii (Proteus morganii): 0.78 µg/mL (≈ 1.19 µM); MIC Proteus vulgaris (Proteus vulgaris): 0.78 µg/mL (≈ 1.19 µM); MIC Proteus rettgeri (Proteus rettgeri): 3.13 µg/mL (≈ 4.76 µM); Relative activity (%) against β-lactamase, E. freundii GN 346 [5]: 0.1%; Relative activity (%) against β-lactamase, Pr. vulgaris GN 76 [6]: 4%
